Laboratory results as given in patent EP4741390A1, “BIARYL RING COMPOUND, INTERMEDIATE THEREOF, PREPARATION METHOD THEREFOR AND USE THEREOF” (Hangzhou Synrx Therapeutics Biomedical Technology Co., Ltd., priority 2023, dated 2025).
pIC50: −log10 of the molar value. Like-named read-outs stand apart in the source and are kept apart here.

How the values were obtained:
[1] = biological target: helicase domain of the Pol θ protein (Homo sapiens, UniProt O75417); format: biochemical
Protocol: Biochemical Activity Assay (ADP Glo Assay) of Pol θ Inhibitor
The specific assay method was as follows: • 1) The helicase domain of the Pol θ protein was purified by an insect system, to obtain the protein with a purity of >90%. ssDNA (5'-[sequence]-3', Hangzhou Yocon Biotechnology Co., Ltd.) was ordered as the substrate for the Pol θ protein; and a reaction buffer containing 10 mM DTT (Dithiothreitol), 20 mM MgCl2 and Tris-HCl pH 7.5 was prepared. • 2) The 2x ssDNA-Pol θ premix was prepared; the reaction was conducted in a 384-well plate; a control group with only buffer is set, and the premix was added to the rest of the groups.

[2] = tested on: DLD1 wild type; experiment: Cell viability assay (CTG assay), DLD1 wild type cells; format: cell-based; details: Homo sapiens, DLD-1, 240 h; CellTiter Glo, read on Day 10, initial concentration 30 µM
Protocol: (§1) 2. Cell Viability Assay of Pol θ Inhibitor
(§2) The cell viability assay, i.e., the commonly used CTG assay, was conducted for the efficacy of the inhibitor in vitro using the CellTiter Glo reagent (Promega, G7573).

[3] = tested on: DLD1 BRCA2-/- cells; experiment: Cell viability assay (CTG assay), DLD1 BRCA2-/- cells; format: cell-based; details: Homo sapiens, DLD-1, 240 h; CellTiter Glo, read on Day 10, initial concentration 30 µM
Protocol: as §1, §2

[4] = ATPase activity, ADP-Glo, ssDNA substrate, 60 min at room temperature, initial concentration 10 µM, read-out: Biochemical experiment IC50

helicase domain of the Pol θ protein, sequence (O75417 102-554 limits assumed): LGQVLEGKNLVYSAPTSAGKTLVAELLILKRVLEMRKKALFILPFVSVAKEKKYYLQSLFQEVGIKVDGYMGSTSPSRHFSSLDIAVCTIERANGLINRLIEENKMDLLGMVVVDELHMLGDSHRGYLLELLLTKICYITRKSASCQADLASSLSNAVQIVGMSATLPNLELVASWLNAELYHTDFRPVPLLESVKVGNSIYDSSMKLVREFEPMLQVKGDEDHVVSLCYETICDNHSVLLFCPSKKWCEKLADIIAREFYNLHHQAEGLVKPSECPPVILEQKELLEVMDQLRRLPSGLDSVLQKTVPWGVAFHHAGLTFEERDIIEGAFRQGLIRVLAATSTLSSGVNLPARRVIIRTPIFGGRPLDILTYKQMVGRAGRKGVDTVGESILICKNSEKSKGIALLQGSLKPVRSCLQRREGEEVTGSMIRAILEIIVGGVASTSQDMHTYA

pIC50 [1, 4]	SMILES	pIC50 [1]	IC50 [2] [nM]	IC50 [3] [nM]
–	COc1cnc(C(F)F)cc1-c1cc(-n2cccc(F)c2=O)ncc1C(=O)Nc1nc(-c2ccc(Cl)cc2)ns1 [Example 23]	6.77	> 50000	185
–	COc1cnc(C(F)F)cc1-c1cc(-n2cccc(F)c2=O)ncc1C(=O)Nc1nc(N2CCOCC2)ns1 [Example 24]	7.69	> 5000	15.3
–	COc1cnc(C(F)F)cc1-c1cc(-n2cccc(F)c2=O)ncc1C(=O)Nc1nc(N2CC3(COC3)C2)ns1 [Example 25, N-(3-(2-oxa-6-azaspiro[3.3]heptan-6-yl)-1,2,4-thiadiazol-5-yl)-2"-(difluoromethyl)-3-fluoro-5"-methoxy-2-oxo-2H-[1,2':4',4"-bipyridin]-5'-carboxamide]	7.37	> 5000	242
8.64	COc1cnc(Cl)cc1-c1cc(-n2cccc(F)c2=O)ncc1C(=O)Nc1nc(-c2c(C)cnn2C)ns1 [Example 26, 2"-chloro-N-(3-(1,4-dimethyl-1H-pyrazol-5-yl)-1,2,4-thiadiazol-5-yl)-3-fluoro-5"-methoxy-2-oxo-2H-[1,2':4',4"-terpyridin]-5'-carboxamide]	–	> 5000	0.82
7.96	COc1cnc(C(F)F)cc1-c1cc(-n2cccc(F)c2=O)ncc1C(=O)Nc1nc(N2CC3CC3C2)ns1 (stereo not drawn) [Example 28, N-(3-(3-azabicyclo[3,1,0]hex-3-yl)-1,2,4-thiadiazol-5-yl)-2"-(difluoromethyl)-3-fluoro-5"-methoxy-2-oxo-2H-[1,2':4',4"-terpyridin]-5'-carboxamide]	–	> 5000	24.2
8.21	COc1cnc(C(F)F)cc1-c1cc(-n2cccc(F)c2=O)ncc1C(=O)Nc1nc(-c2c(C)ncn2C)ns1 [Example 32, 2"-(difluoromethyl)-N-(3-(1,4-dimethyl-1H-imidazol-5-yl)-1,2,4-thiadiazol-5-yl)-3-fluoro-5"-methoxy-2-oxo-2H-[1,2':4',4"-terpyridin]-5'-carboxamide]	–	> 5000	13.1
–	COc1cnc(C(F)F)cc1-c1cc(-n2cccc(F)c2=O)ncc1C(=O)Nc1nc(C2CCC2)ns1 [Example 33, N-(3-cyclobutyl-1,2,4-thiadiazol-5-yl)-2"-(difluoromethyl)-3-fluoro-5"-methoxy-2-oxo-2H-[1,2":4'4"-bipyridin]-5'-carboxamide]	8.39	> 5000	8.57
